Measurements published in patent publication US5578570A, “Method of treating septic shock using thymosin β4” (The George Washington University Medical Center, priority 1994, dated 1996).

Columns and labels:
[1] = system: TNFα; assay: TNFα levels in a septic shock model in rat; format: in vivo; conditions: rats with septic shock + Tβ4 1 mg/rat × 3
Description: (§1) Using a septic shock model in rats (Sprague-Dawley, male, 200-225 g each), the effect of thymosin β4 alone and together with antibiotics was studied. Peritonitis was induced in rats in the following way. A 1-cm incision was made into the peritoneal which exposed the cecum. A tight ligature was placed around the cecum with 4-0 suture distal to the insertion of the small bowel, forming an area of devitalized tissue while maintaining bowel continuity. A puncture wound was made with 16-gauge needle into the anti-mesenteric surface of the cecum and a small amount of fecal contents was expressed through the wound. The cecum was replaced into the peritoneal cavity, and the anterior peritoneal wall and skin were closed with surgical staples. Each animal was given a bolus of normal saline (15 ml/kg) for hydration and allowed to recover overnight.
(§2) The results presented in Tables XV to XVIII below show effects of Tβ4 respectively on rat cytokine levels, blood malonyldialdehyde levels, glutathione levels and arachidonic acid metabolic levels.

[2] = system: T × β2; assay: T×β2 levels in a septic shock model in rat; format: in vivo; conditions: rats with septic shock + Tβ4 1 mg/rat × 3
Description: as §1, §2

Thymosin β4 [Tβ4]
TNFα [1]: 1259 ± 138 pg/mL
T × β2 [2]: 1627 ± 123 pg/mL
